For data set [1] the following is noted: human, in vivo.
The conditions of data set [2]: rat, in vivo.
For data set [3] the following is noted: dog, in vivo.
The conditions of data set [4]: in vivo.
Data set [5] concerns visceral hyperalgesia. Particulars: animal models of IBS; cited from earlier work.
The conditions of data set [6]: rat, in vivo; cited from earlier work.
The conditions of data set [7]: rat, in vivo; cited from earlier work. This is another data set of the same source.

Like-named read-outs stand apart in the source and are kept apart here. Where only a bound is given, the exact number is not on record here.

As for “cyclo ( [Asn(β--D-2-deoxy-2-acetamido-Glc)-Asp-Trp-Phe-Dap-Leu]cyclo(2β--5β-)) [nepadutant]”, the oral bioavailability in data set [1] and in data set [6] was 1% in each case. In addition, the Maximum bioavailability is on record as no more than 20% in data set [2], no more than 2% in data set [3] and no more than 2% in data set [4]. Also, the visceral hyperalgesia entry in data set [5] was “corrects visceral hyperalgesia”. Besides, the absoption in data set [7] was greater than 80%.

The record behind these values is patent EP1297826A1, “Nasal pharmaceutical compositions containing a NK-2 antagonist” (Menarini Ricerche S.p.A., priority 2001, dated 2003).
